The IC50 is the midpoint of a concentration-inhibition curve.

Where two headings read alike, the source gives them in different places.

The values that follow come from US11345711B2, “8,9-dihydroimidazo[1,2-a]pyrimido[5,4-e]pyrimidin-5(6H)-ones” (IMPACT THERAPEUTICS (SHANGHAI), INC, priority 2016, dated 2022).

The target in one assay is Wee1 (h) (Homo sapiens, UniProt P30291). Put plainly: Wee1 kinase (h) detection method, [γ-33P]-ATP filter assay. In kind it is biochemical.
Another assay relates to LoVo cells. Put plainly: MTT based cell viability assay on LoVo cells. To be noted: Homo sapiens, LoVo, 72 h, 3 d, read-out: IC50, growth inhibition of LoVo cells. The essentials: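 Inhibition of LoVo proliferation was derived as IC50 from a sigmoidal dose-response fit of cell survival. Readout was MTT (0.5 mg/mL, 4 h) with absorbance at 552/630/690 nm, after 3-day treatment at 37 °C. Eight-point series from 10 μM to 0.01 μM, DMSO control, 1% DMSO final.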

For another assay, the system named is NCI-H1299 cells. Put plainly: MTT based cell viability assay on NCI-H1299 cells. To be noted: Homo sapiens, read-out: IC50, growth inhibition of NCI-H1299 cells. Summed up:
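NCI-H1299 cells (1000/well, settled overnight) were exposed for 3 d at 37 °C, 5% CO2, to an eight-point series of 10 μM to 0.01 μM plus DMSO blank, as prepared in DMSO (final DMSO 1‰). MTT (0.5 mg/mL, 4 h) was read at 552/630/690 nm. IC50 came from sigmoidal dose-response fits of survival.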

Chain of Wee1 (h) (P30291 whole entry): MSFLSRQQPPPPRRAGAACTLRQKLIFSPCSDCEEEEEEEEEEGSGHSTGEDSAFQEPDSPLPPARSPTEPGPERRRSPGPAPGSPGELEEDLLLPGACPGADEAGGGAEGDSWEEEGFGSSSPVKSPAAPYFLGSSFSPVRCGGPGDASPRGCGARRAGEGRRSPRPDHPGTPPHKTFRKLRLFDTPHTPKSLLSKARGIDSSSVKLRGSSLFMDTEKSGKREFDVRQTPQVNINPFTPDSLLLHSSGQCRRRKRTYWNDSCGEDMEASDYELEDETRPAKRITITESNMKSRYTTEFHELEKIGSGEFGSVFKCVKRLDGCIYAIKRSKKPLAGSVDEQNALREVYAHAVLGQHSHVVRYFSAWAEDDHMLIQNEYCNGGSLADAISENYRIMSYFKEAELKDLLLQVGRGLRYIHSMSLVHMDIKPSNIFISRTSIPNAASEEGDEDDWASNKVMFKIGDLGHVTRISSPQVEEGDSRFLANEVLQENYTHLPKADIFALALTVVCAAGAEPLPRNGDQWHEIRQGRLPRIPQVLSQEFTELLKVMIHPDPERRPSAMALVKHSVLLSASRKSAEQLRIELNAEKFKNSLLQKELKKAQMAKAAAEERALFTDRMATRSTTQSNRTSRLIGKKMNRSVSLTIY

On to `CN1CCN(c2ccc(Nc3ncc4c(n3)N3CCN=C3N(c3c(F)cccc3Cl)C4=O)cc2Cl)CC1` [Example 46, 6-(2-Chloro-6-fluorophenyl)-2-((3-chloro-4-(4-methylpiperazin-1-yl)phenyl)amino)-8,9-dihydroimidazo[1,2-a]pyrimido[5,4-e]pyrimidin-5(6H)-one], for which the results for the “Inh. (%) of Wee1 kinase enzyme activity” value at Wee1 (h) (C 0.01 μm compound), at Wee1 (h) (C 0.1 μm compound) and on Wee1 (h) (C 1 μm compound) were 36%, 85% and 97%, respectively. Besides, the IC50 in the assay on LoVo cells worked out at 26.1 nM; with NCI-H1299 cells (NCI-H1299, NCI-H1299 cells) it was 528 nM.
On to `CN(C)CCCNc1ccc(Nc2ncc3c(n2)N2CCN=C2N(c2c(F)cccc2Cl)C3=O)cc1` [Example 110, 6-(2-Chloro-6-fluorophenyl)-2-((4-((3-(dimethylamino)propyl)amino)phenyl)amino)-8,9-dihydroimidazo[1,2-a]pyrimido[5,4-e]pyrimidin-5(6H)-one], for which, at Wee1 (h) (C 1 μm compound), the “Inh. (%) of Wee1 kinase enzyme activity” value is 96%. Moreover, the values for the IC50 in the assay on LoVo cells and in the assay on NCI-H1299 cells (NCI-H1299 cells) were 472 nM and 599 nM, respectively.
In the case of `Cc1cc(Nc2ncc3c(n2)N2CCN=C2N(c2c(Cl)cccc2Br)C3=O)cc(F)c1N1CCN(C)CC1` [Example 165, 6-(2-Bromo-6-chlorophenyl)-2-((3-fluoro-5-methyl-4-(4-methylpiperazin-1-yl)phenyl)amino)-8,9-dihydroimidazo[1,2-a]pyrimido[5,4-e]pyrimidin-5(6H)-one], the “Inh. (%) of Wee1 kinase enzyme activity” value at Wee1 (h) (C 1 μm compound) is 92%. The IC50 with LoVo cells was 24.1 nM; in the assay on NCI-H1299 cells (NCI-H1299, NCI-H1299 cells) it was 97.3 nM.
As to `COc1cc(Nc2ncc3c(n2)N2CCN=C2N(c2c(F)cccc2Cl)C3=O)cc(F)c1N1CCN(C)CC1` [Example 124, 6-(2-Chloro-6-fluorophenyl)-2-((3-fluoro-5-methoxy-4-(4-methylpiperazin-1-yl)phenyl)amino)-8,9-dihydroimidazo[1,2-a]pyrimido[5,4-e]pyrimidin-5(6H)-one], the “Inh. (%) of Wee1 kinase enzyme activity” value on Wee1 (h) (C 0.01 μm compound) is on record as 18%; at Wee1 (h) (C 0.1 μm compound), 62%; at Wee1 (h) (C 1 μm compound), 92%. Also, the IC50 worked out at 49.7 nM with LoVo cells and 138 nM in the assay on NCI-H1299 cells (NCI-H1299, NCI-H1299 cells).
Consider `Cc1cc(Nc2ncc3c(n2)N2CCN=C2N(c2c(C)cccc2Cl)C3=O)cc(C)c1N1CCN(C)CC1` [Example 174, 6-(2-Chloro-6-methylphenyl)-2-((3,5-dimethyl-4-(4-methylpiperazin-1-yl)phenyl)amino)-8,9-dihydroimidazo[1,2-a]pyrimido[5,4-e]pyrimidin-5(6H)-one], for which the “Inh. (%) of Wee1 kinase enzyme activity” value at Wee1 (h) (C 0.01 μm compound) was determined as 30%; at Wee1 (h) (C 0.1 μm compound), 83%; at Wee1 (h) (C 1 μm compound) it was 94%. Moreover, the IC50 with LoVo cells was determined as 136 nM; with NCI-H1299 cells (NCI-H1299, NCI-H1299 cells), 152 nM.
Regarding `Cc1cc(Nc2ncc3c(n2)N2CCN=C2N(c2c(Cl)cccc2Br)C3=O)ccc1N1CCN(C)CC1` [Example 163, 6-(2-Bromo-6-chlorophenyl)-2-((3-methyl-4-(4-methylpiperazin-1-yl)phenyl)amino)-8,9-dihydroimidazo[1,2-a]pyrimido[5,4-e]pyrimidin-5(6H)-one], the “Inh. (%) of Wee1 kinase enzyme activity” value is listed as 25% on Wee1 (h) (C 0.01 μm compound), 87% on Wee1 (h) (C 0.1 μm compound) and 99% at Wee1 (h) (C 1 μm compound). For the same compound, the IC50 in the assay with LoVo cells worked out at 62.5 nM; in the assay on NCI-H1299 cells (NCI-H1299 cells), 97.8 nM.
Turning to `Cc1cc(Nc2ncc3c(n2)N2CCN=C2N(c2c(F)cccc2Cl)C3=O)ccc1N1CCC(N(C)C)CC1` [Example 119, 6-(2-Chloro-6-fluorophenyl)-2-((4-(4-(dimethylamino)piperidin-1-yl)-3-methylphenyl)amino)-8,9-dihydroimidazo[1,2-a]pyrimido[5,4-e]pyrimidin-5(6H)-one], the “Inh. (%) of Wee1 kinase enzyme activity” value at Wee1 (h) (C 0.01 μm compound) is 24%; on Wee1 (h) (C 0.1 μm compound), 86%; on Wee1 (h) (C 1 μm compound), 99%. Also, the IC50 is 54.3 nM with LoVo cells and 92.3 nM in the assay on NCI-H1299 cells (NCI-H1299, NCI-H1299 cells).
Regarding `CN1CCN(c2ccc(Nc3ncc4c(n3)N3CCN=C3N(c3cccc(Cl)c3)C4=O)cc2)CC1` [Example 86, 6-(3-Chlorophenyl)-2-((4-(4-methylpiperazin-1-yl)phenyl)amino)-8,9-dihydroimidazo[1,2-a]pyrimido[5,4-e]pyrimidin-5(6H)-one], the “Inh. (%) of Wee1 kinase enzyme activity” value at Wee1 (h) (C 1 μm compound) is 13%. The IC50 is above 100000 nM with LoVo cells and above 10000 nM in the assay with NCI-H1299 cells (NCI-H1299 cells).
Consider `C[C@@H]1CN(c2ccc(Nc3ncc4c(n3)N3CCN=C3N(c3c(Cl)cccc3Cl)C4=O)cc2)C[C@H](C)N1C` [Example 64, 6-(2,6-Dichlorophenyl)-2-((4-((3S,5R)-3,4,5-trimethylpiperazin-1-yl)phenyl)amino)-8,9-dihydroimidazo[1,2-a]pyrimido[5,4-e]pyrimidin-5(6H)-one], for which the “Inh. (%) of Wee1 kinase enzyme activity” value is 52% on Wee1 (h) (C 0.01 μm compound), 88% at Wee1 (h) (C 0.1 μm compound) and 100% on Wee1 (h) (C 1 μm compound). In addition, the IC50 is 96.5 nM in the assay on LoVo cells and 177 nM with NCI-H1299 cells (NCI-H1299 cells).
Turning to `CN1CCN(c2ccc(Nc3ncc4c(n3)N3CCN=C3N(c3ccncc3)C4=O)cc2)CC1` [Example 99, 6-(Pyridin-4-yl)-2-((4-(4-methylpiperazin-1-yl)phenyl)amino)-8,9-dihydroimidazo[1,2-a]pyrimido[5,4-e]pyrimidin-5(6H)-one], the “Inh. (%) of Wee1 kinase enzyme activity” value at Wee1 (h) (C 1 μm compound) is given as 8%. Besides, the values for the IC50 with LoVo cells and in the assay on NCI-H1299 cells (NCI-H1299 cells) were above 100000 nM and above 10000 nM, respectively.
For the compound `C[C@@H]1CN(c2ccc(Nc3ncc4c(n3)N3CCN=C3N(c3c(F)cccc3Cl)C4=O)cc2)C[C@H](C)O1` [Example 32, 6-(2-Chloro-6-fluorophenyl)-2-((4-((2S,6R)-2,6-dimethylmorpholino)phenyl)amino)-8,9-dihydroimidazo[1,2-a]pyrimido[5,4-e]pyrimidin-5(6H)-one], the “Inh. (%) of Wee1 kinase enzyme activity” value came out at 19% at Wee1 (h) (C 0.01 μm compound), 69% on Wee1 (h) (C 0.1 μm compound) and 94% at Wee1 (h) (C 1 μm compound). Moreover, the IC50 was 836 nM in the assay with LoVo cells and above 10000 nM in the assay on NCI-H1299 cells (NCI-H1299 cells).
For `CN1Cc2cc(Nc3ncc4c(n3)N3CCN=C3N(c3c(F)cccc3Cl)C4=O)ccc2C(C)(C)C1` [Example 9, 6-(2-Chloro-6-fluorophenyl)-2-((2,4,4-trimethyl-1,2,3,4-tetrahydroisoquinolin-7-yl)amino)-8,9-dihydroimidazo[1,2-a]pyrimido[5,4-e]pyrimidin-5(6H)-one], the “Inh. (%) of Wee1 kinase enzyme activity” value on Wee1 (h) (C 0.01 μm compound) came to 28%; at Wee1 (h) (C 0.1 μm compound), 79%; at Wee1 (h) (C 1 μm compound), 100%. The half-inhibitory concentration (IC50) was determined as 126 nM with LoVo cells and 183 nM in the assay with NCI-H1299 cells (NCI-H1299 cells).
With `CN1CCN(c2ccc(Nc3ncc4c(n3)N3CCN=C3N(c3c(Cl)cccc3Cl)C4=O)cc2F)CC1` [Example 69, 6-(2,6-Dichlorophenyl)-2-((3-fluoro-4-(4-methylpiperazin-1-yl)phenyl)amino)-8,9-dihydroimidazo[1,2-a]pyrimido[5,4-e]pyrimidin-5(6H)-one], the entries for the “Inh. (%) of Wee1 kinase enzyme activity” value at Wee1 (h) (C 0.01 μm compound), on Wee1 (h) (C 0.1 μm compound) and at Wee1 (h) (C 1 μm compound) were 24%, 73% and 97%, respectively. Besides, the IC50 with LoVo cells amounted to 105 nM; with NCI-H1299 cells (NCI-H1299, NCI-H1299 cells), 426 nM.
For `C[C@@H]1CN(c2ccc(Nc3ncc4c(n3)N3CCN=C3N(c3c(F)cccc3Cl)C4=O)cc2Cl)C[C@H](C)N1C` [Example 47, 2-((3-Chloro-4-((3S,5R)-3,4,5-trimethylpiperazin-1-yl)phenyl)amino)-6-(2-chloro-6-fluorophenyl)-8,9-dihydroimidazo[1,2-a]pyrimido[5,4-e]pyrimidin-5(6H)-one], the “Inh. (%) of Wee1 kinase enzyme activity” value on Wee1 (h) (C 0.01 μm compound) came to 45%; on Wee1 (h) (C 0.1 μm compound), 89%; at Wee1 (h) (C 1 μm compound), 98%. Further, the IC50 with LoVo cells is 30.5 nM; in the assay on NCI-H1299 cells (NCI-H1299 cells) it was 330 nM.
For `CN1CCc2ccc(Nc3ncc4c(n3)N3CCN=C3N(c3c(Cl)cccc3Cl)C4=O)cc2C1` [Example 12, 6-(2,6-Dichlorophenyl)-2-((2-methyl-1,2,3,4-tetrahydroisoquinolin-7-yl)amino)-8,9-dihydroimidazo[1,2-a]pyrimido[5,4-e]pyrimidin-5(6H)-one], the results for the “Inh. (%) of Wee1 kinase enzyme activity” value on Wee1 (h) (C 0.01 μm compound), at Wee1 (h) (C 0.1 μm compound) and on Wee1 (h) (C 1 μm compound) were 32%, 83% and 98%, respectively. In addition, the figures for the IC50 in the assay with LoVo cells and in the assay with NCI-H1299 cells (NCI-H1299 cells) were 219 nM and 232 nM, respectively.
For the compound `CN1CCN(Cc2ccc(Nc3ncc4c(n3)N3CCN=C3N(c3c(F)cccc3Cl)C4=O)cc2)CC1` [Example 104, 6-(2-Chloro-6-fluorophenyl)-2-((4-((4-methylpiperazin-1-yl)methyl)phenyl)amino)-8,9-dihydroimidazo[1,2-a]pyrimido[5,4-e]pyrimidin-5(6H)-one], the “Inh. (%) of Wee1 kinase enzyme activity” value at Wee1 (h) (C 1 μm compound) stood at 93%. For the same compound, the results for the IC50 in the assay on LoVo cells and with NCI-H1299 cells (NCI-H1299 cells) were 460 nM and 1050 nM, respectively.
On to `CN1CCN(c2ccc(Nc3ncc4c(n3)N3CCN=C3N(C3CCCC3)C4=O)cc2)CC1` [Example 95, 6-Cyclopentyl-2-((4-(4-methylpiperazin-1-yl)phenyl)amino)-8,9-dihydroimidazo[1,2-a]pyrimido[5,4-e]pyrimidin-5(6H)-one], for which the “Inh. (%) of Wee1 kinase enzyme activity” value on Wee1 (h) (C 1 μm compound) is recorded as 8%. For the same compound, the IC50 came to 1880 nM in the assay on LoVo cells and 2130 nM in the assay with NCI-H1299 cells (NCI-H1299 cells).
